Assay results as given in patent publication US20120276186A1, “SUSTAINED RELEASE LATANOPROST IMPLANT” (priority 2011, published 2012).

How the values were obtained:
solubility parameter = assay type: physicochemical
From the text: The solubility parameter for a substance is a numerical value which indicates the relative solvency behavior of that substance. The concept is discussed and defined in US 2008/0145403.
Latanoprost is very difficult to incorporate into biodegradable polymer matrices, because it is an oil. It has now been discovered, that this problem can be overcome by using a combination of high molecular weight PLA and PLGA polymers and fabricating the implant by melt extrusion or casting in an appropriate solvent. The oily drug substance (DS), i.e. latanoprost, helps plasticize the polymer and allows the production of a homogeneous polymer film. […] It has been determined that dichloromethane is a good solvent for PLA and PLGA, which have solubility parameters of about 21.1 MPa^0.5 and about 22.1 MPa^0.5, respectively. Thus, a solvent having a solubility parameter of from 17.1 to 26.1 MPa^0.5, preferably from 17.6 to 25.6, e.g. 21.1 or 22.1 MPa^0.5 may be used in the practice of this invention. Such solvents may include dichloromethane, isopropanol, ethanol, acetonitrile and octanol.

[1] = cited from earlier work

Compound	solubility parameter (solubility parameter)	solubility in organic solvents ([1]; acetone, ethanol, ethyl acetate, isopropanol, methanol and octanol)	solubility in acetonitrile ([1]; acetonitrile)	solubility in water ([1]; water)
CC(C)OC(=O)CCC/C=C\C[C@@H]1[C@@H](CC[C@@H](O)CCc2ccccc2)[C@H](O)C[C@@H]1O [Latanoprost]	22-24 MPa^0.5	freely soluble	very soluble	practically insoluble
ClCCl [dichloromethane]	19.8 MPa^0.5			
PEG 3350	about 20 MPa^0.5			
poly(D,L-lactide) [PLA]	about 21.1 MPa^0.5			
poly(D,L-lactide-co-glycolide) [PLGA]	about 22.1 MPa^0.5			
